Measured values published in PMC6681004, “Asymmetric Whole-Cell Bio-Reductions of (R)-Carvone Using Optimized Ene Reductases” (Molecules, 2019).

Target: T1, NostocER1 (Nostoc sp. PCC 7120 = FACHB-418, UniProt A0ACD6B956)
T1 construct: gene all1865; full-length gene, pET28a(+) based vector (NcoI/BamHI), co-expressed with M. vaccae FDH in E. coli BL21(DE3)
Test: whole-cell biotransformation, chiral GC-FID
Type: cell-based
Conditions: E. coli BL21(DE3) whole cells with FDH; 300 mM (R)-carvone, 450 mM formate, 0.1 mM NAD+, XAD4 resin, pH 7.0, 25 °C; product (2R,5R)-dihydrocarvone

T1 sequence (A0ACD6B956 38-402): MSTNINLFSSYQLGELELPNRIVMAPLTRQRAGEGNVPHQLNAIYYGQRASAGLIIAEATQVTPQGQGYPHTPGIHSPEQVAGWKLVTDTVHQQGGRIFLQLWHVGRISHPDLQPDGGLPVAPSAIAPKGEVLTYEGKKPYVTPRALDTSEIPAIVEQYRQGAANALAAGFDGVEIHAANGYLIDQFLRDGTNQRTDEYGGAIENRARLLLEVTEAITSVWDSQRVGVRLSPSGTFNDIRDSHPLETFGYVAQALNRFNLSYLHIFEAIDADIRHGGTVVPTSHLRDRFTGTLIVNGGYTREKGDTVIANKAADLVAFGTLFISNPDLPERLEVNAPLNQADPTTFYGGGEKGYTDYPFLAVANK

For `C=C(C)[C@@H]1CC=C(C)C(=O)C1` [compound 1, (R)-carvone], the “whole-cell biotransformation, chiral GC-FID” value was “E. coli cells with the NostocER1 wild type possessed the slowest of all determined product formation rates”.
